Assay results as given in patent publication US20240408169A1 (priority 2023, published 2024).
Like-named read-outs stand apart in the source and are kept apart here. *1 amine or outer side, *2 acyl side, *3 side chain or, on linkers, in order; H or OH if unused. Where a SMILES comes first, the peptide text is derived from it. Bridges are numbered along the chain shown (N, C = ends). [ ]: non-standard residue; d: D form. The star is where a group is joined. ξ: configuration not given here. X78 = CN1CCN(C2(c3ccc(-c4ccc(Cl)cc4C[C@@H](C(=O)[*:2])N(C)[*:1])cc3)CC2)CC1; X63 = CC(C)N1CCN(c2ccc(-c3ccc(Cl)cc3C[C@@H](C(=O)[*:2])N(C)[*:1])cc2F)CC1; X160 = CC(=O)N1CC=C(c2ccc(Cl)cc2C[C@@H](C(=O)[*:2])N(C)[*:1])C(C)(C)C1; X90 = CC(=O)N1CC=C(c2ccc(Cl)cc2C[C@@H](C(=O)[*:2])N(C)[*:1])CC1; X68 = CN([C@@H](Cc1cc(Cl)ccc1-c1cnn(C2CC2)c1)C(=O)[*:2])[*:1]; NMehhhLys(Me) = CN([C@@H](CCCCCCCN(C)[*:3])C(=O)[*:2])[*:1]; X67 = Cc1c(-c2ccc(Cl)cc2C[C@@H](C(=O)[*:2])N(C)[*:1])cnn1C; NMe(hhhLys) = CN([C@@H](CCCCCCCN[*:3])C(=O)[*:2])[*:1]; X17 = CN([C@@H](Cc1cc(Cl)cnc1N1CCOCC1)C(=O)[*:2])[*:1]; NMe3Pal(2-OMe,5-Cl) = CN[C@@H](Cc1cc(Cl)cnc1OC)C(=O)O; Oxane2carbonyl(2R-CF3) = O=C([C@@]1(C(F)(F)F)CCCCO1)*; X33 = CN([C@@H](Cc1cc(Cl)cc2c1OCCO2)C(=O)[*:2])[*:1]; cBuCO(3,3-F2-1-CF3) = O=C(C1(C(F)(F)F)CC(F)(F)C1)*; Pro(trans-4-F) = O=C(O)[C@@H]1C[C@@H](F)CN1; Gly(cPr) = N[C@H](C(=O)O)C1CC1; ξGly(cPr) = NC(C(=O)O)C1CC1

How the values were obtained:
[1] = system: WI-38 cells; assay: MTT proliferation assay, WI-38; assay type: cell-based; conditions: 3 days compound exposure, 1:3 serial dilution starting at 10 μM;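 further: Eight- or ten-point dilution series, with exposure length chosen to span about three to four cell doublings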
[2] = molecular target: T1, CyclinA2/CDK2 (Homo sapiens, UniProt P20248); assay: Fluorescence Polarization (FP) competitive binding assay, Cyclin A2/Cdk2;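 further: plates equilibrated two hours at room temperature before polarization reading, IC50 fitted from eight-concentration compound titration curves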
T1 construct: purchased CRELUX Protein Services

[3] = system: OVCAR3 cells; assay: MTT proliferation assay, OVCAR3; assay type: cell-based; conditions: 5 days compound exposure, 1:3 serial dilution starting at 10 μM;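 further: compound given as an 8- or 10-point series, one day after plating, with exposure covering roughly 3-4 cell doublings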
[4] = system: NCI-H1048 cells; assay: MTT proliferation assay, NCI-H1048; assay type: cell-based; conditions: 5 days compound exposure, 1:3 serial dilution starting at 10 μM;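 further: Dose-response in 96-well plates over 8 or 10 concentration points, with exposure spanning 3-4 cell doublings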
[5] = molecular target: T2, CyclinE1/CDK2 (Homo sapiens, UniProt P24864); assay: Fluorescence Polarization (FP) competitive binding assay, Cyclin E1/Cdk2;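 further: readings taken after two-hour equilibration at room temperature in HEPES buffer with NaCl, DTT, NP-40 and BSA, IC50 fitted from eight-concentration serial dilution series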
T2 construct: purchased Eurofins, discovery 14-475

[6] = molecular target: T3, CyclinB1/CDK1 (Homo sapiens, UniProt P14635); assay: Fluorescence Polarization (FP) competitive binding assay, Cyclin B1/Cdk1;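 further: fluorescence polarization read after equilibration at room temperature, with IC50 taken from serially diluted dose-response curves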
T3 construct: purchased Eurofins, discovery 14-450

[7] = 8 nM Cyclin A2/Cdk2, 2 nM FAM probe, average of 2-3 independent experiments, read-out: Cyclin A FP IC50
[8] = 10 nM Cyclin E1/Cdk2, 2 nM FAM probe, average of 2-3 independent experiments, read-out: Cyclin E FP IC50
[9] = 10 nM Cyclin B1/Cdk1, 2 nM FAM probe; average of 2-3 independent experiments; read-out: Cyclin B FP IC50

Row | Compound | GI50 [1] | IC50 [2, 7] | GI50 [3] | GI50 [4] | IC50 [5, 8] | IC50 [6, 9] | IC50 [2] | IC50 [5] | IC50 ([6]; read-out: Cyclin B FP IC50; 10 nM Cyclin B1/Cdk1, 2 nM FAM probe; average of 2-3 independent experiments)
1 | CC(C)C[C@@H]1NC(=O)[C@@H](N(C)C(=O)[C@@H](NC(=O)[C@@H]2C[C@@H](F)CN2C(=O)C2(C(F)(F)F)CCC2)C2CC2)CC=CCCCCNC(=O)[C@H](Cc2cc(Cl)ccc2-c2cnn(CCO)c2)N(C)C1=O [Example 33] | 15600 nM | 20 nM | 170 nM | 90 nM | 270 nM | 20 nM | – | – | –
2 | CC(C)C[C@@H]1NC(=O)[C@@H](N(C)C(=O)[C@@H](NC(=O)[C@@H]2C[C@@H](F)CN2C(=O)C2(C(F)(F)F)CCC2)C2CC2)C/C=C\CCCCN(C)C(=O)[C@H](Cc2cc(Cl)ccc2-c2cnn(C3CC3)c2)N(C)C1=O [Example 176] | 5480 nM | 20 nM | 10 nM | 10 nM | 100 nM | 20 nM | – | – | –
3 | CC(C)C[C@@H]1NC(=O)[C@@H](N(C)C(=O)[C@@H](NC(=O)[C@@H]2C[C@@H](F)CN2C(=O)C2(C(F)(F)F)CC(F)(F)C2)C2CC2)CCCCCCCN(C)C(=O)[C@H](Cc2cc(Cl)ccc2-c2ccc(N3CCN(C(C)C)CC3)c(F)c2)N(C)C1=O [Example 413] ({cBuCO(3,3-F2-1-CF3)}-[Pro(trans-4-F)][Gly(cPr)][NMehhhLys(Me)]L[X63]; lactam 3-C) | 1600 nM | 20 nM | 10 nM | 10 nM | 1310 nM | 20 nM | – | – | –
4 | CC(C)C[C@@H]1NC(=O)[C@@H](N(C)C(=O)[C@@H](NC(=O)[C@@H]2C[C@@H](F)CN2C(=O)C2(C(F)(F)F)CC(F)(F)C2)C2CC2)CCCCCCCN(C)C(=O)[C@H](Cc2cc(Cl)ccc2-c2cnn(C3CC3)c2)N(C)C1=O [Example 110] ({cBuCO(3,3-F2-1-CF3)}-[Pro(trans-4-F)][Gly(cPr)][NMehhhLys(Me)]L[X68]; lactam 3-C) | 4800 nM | 20 nM | 10 nM | 10 nM | 330 nM | 20 nM | – | – | –
5 | CC(C)C[C@@H]1NC(=O)[C@@H](N(C)C(=O)[C@@H](NC(=O)[C@@H]2C[C@@H](F)CN2C(=O)C2(C(F)(F)F)CC(F)(F)C2)C2CC2)CCCCCCCN(C)C(=O)[C@H](Cc2cc(Cl)cc3c2OCCO3)N(C)C1=O [Example 321] ({cBuCO(3,3-F2-1-CF3)}-[Pro(trans-4-F)][Gly(cPr)][NMehhhLys(Me)]L[X33]; lactam 3-C) | 89800 nM | 20 nM | 10 nM | 10 nM | 100 nM | 20 nM | – | – | –
6 | CC(C)C[C@@H]1NC(=O)[C@@H](N(C)C(=O)[C@@H](NC(=O)[C@@H]2C[C@@H](F)CN2C(=O)C2(C(F)(F)F)CC(F)(F)C2)C2CC2)CCCCCCCN(C)C(=O)[C@H](Cc2cc(Cl)cnc2N2CCOCC2)N(C)C1=O [Example 320] ({cBuCO(3,3-F2-1-CF3)}-[Pro(trans-4-F)][Gly(cPr)][NMehhhLys(Me)]L[X17]; lactam 3-C) | 15500 nM | 30 nM | 20 nM | 10 nM | 1450 nM | 20 nM | – | – | –
7 | COc1ncc(Cl)cc1C[C@H]1C(=O)NCCCCCCC[C@H](N(C)C(=O)[C@@H](NC(=O)[C@@H]2C[C@@H](F)CN2C(=O)[C@@]2(C(F)(F)F)CCCCO2)C2CC2)C(=O)N[C@@H](CC(C)C)C(=O)N1C [Example 274] ({Oxane2carbonyl(2R-CF3)}-[Pro(trans-4-F)][Gly(cPr)][NMe(hhhLys)]L[NMe3Pal(2-OMe,5-Cl)]; lactam 3-C) | 10500 nM | 30 nM | 10 nM | 10 nM | 100 nM | 20 nM | – | – | –
8 | CC(C)C[C@@H]1NC(=O)[C@@H](N(C)C(=O)[C@@H](NC(=O)[C@@H]2C[C@@H](F)CN2C(=O)C2(C(F)(F)F)CC(F)(F)C2)C2CC2)CCCCCCCN(C)C(=O)[C@H](Cc2cc(Cl)ccc2-c2ccc(C3(N4CCN(C)CC4)CC3)cc2)N(C)C1=O [Example 381] ({cBuCO(3,3-F2-1-CF3)}-[Pro(trans-4-F)][Gly(cPr)][NMehhhLys(Me)]L[X78]; lactam 3-C) | 2300 nM | 20 nM | 40 nM | 20 nM | 1310 nM | 20 nM | – | – | –
9 | CC(=O)N1CC=C(c2ccc(Cl)cc2C[C@H]2C(=O)NCCCCCCC[C@H](N(C)C(=O)[C@@H](NC(=O)[C@@H]3C[C@@H](F)CN3C(=O)C3(C(F)(F)F)CC(F)(F)C3)C3CC3)C(=O)N[C@@H](CC(C)C)C(=O)N2C)CC1 [Example 20] ({cBuCO(3,3-F2-1-CF3)}-[Pro(trans-4-F)][Gly(cPr)][NMe(hhhLys)]L[X90]; lactam 3-C) | 11100 nM | 20 nM | 20 nM | 20 nM | 1520 nM | 20 nM | – | – | –
10 | Cc1c(-c2ccc(Cl)cc2C[C@H]2C(=O)N(C)CCCCCCC[C@H](N(C)C(=O)[C@@H](NC(=O)[C@@H]3C[C@@H](F)CN3C(=O)C3(C(F)(F)F)CC(F)(F)C3)C3CC3)C(=O)N[C@@H](CC(C)C)C(=O)N2C)cnn1C [Example 234] ({cBuCO(3,3-F2-1-CF3)}-[Pro(trans-4-F)][Gly(cPr)][NMehhhLys(Me)]L[X67]; lactam 3-C) | 10700 nM | – | 10 nM | 10 nM | – | – | 30 nM | 830 nM | 20 nM
11 | CC(C)C[C@@H]1NC(=O)[C@@H](N(C)C(=O)[C@@H](NC(=O)[C@@H]2C[C@@H](F)CN2C(=O)C2(C(F)(F)F)CC(F)(F)C2)C2CC2)CC=CCCCCNC(=O)[C@H](Cc2cc(Cl)ccc2C2=CCN(C)CC2)N(C)C1=O (single isomer, unassigned) [Example 56-P1] | 5760 nM | 860 nM | 1020 nM | 470 nM | – | 40 nM | – | – | –
12 | CC(=O)N1CC=C(c2ccc(Cl)cc2C[C@H]2C(=O)NCCCCCCC[C@H](N(C)C(=O)C(NC(=O)[C@@H]3C[C@@H](F)CN3C(=O)C3(C(F)(F)F)CC(F)(F)C3)C3CC3)C(=O)N[C@@H](CC(C)C)C(=O)N2C)C(C)(C)C1 (stereo partly drawn) [Example 277] ({cBuCO(3,3-F2-1-CF3)}-[Pro(trans-4-F)][ξGly(cPr)][NMe(hhhLys)]L[X160]; lactam 3-C) | 3820 nM | 600 nM | 360 nM | 330 nM | – | 20 nM | – | – | –
13 | CC(C)C[C@@H]1NC(=O)[C@@H](N(C)C(=O)[C@@H](NC(=O)[C@@H]2C[C@@H](F)CN2C(=O)C2(C(F)(F)F)CC(F)(F)C2)C2CC2)CC=CCCCCNC(=O)[C@H](Cc2cc(Cl)ccc2C2=CCN(C)CC2)N(C)C1=O (single isomer, unassigned) [Example 56-P2] | 3760 nM | 590 nM | 430 nM | 190 nM | – | 30 nM | – | – | –
14 | CC(C)C[C@@H]1NC(=O)[C@@H](N(C)C(=O)[C@@H](NC(=O)[C@@H]2C[C@@H](F)CN2C(=O)C2(C(F)(F)F)CC(F)(F)C2)C2CC2)CC=CCCCCNC(=O)[C@H](Cc2cc(Cl)ccc2Cl)N(C)C1=O (single isomer, unassigned) [Example 6-P1] | 16400 nM | – | 90 nM | 50 nM | 500 nM | 20 nM | – | – | –
15 | CC(C)C[C@@H]1NC(=O)[C@@H](N(C)C(=O)[C@@H](NC(=O)[C@@H]2C[C@@H](F)CN2C(=O)C2(C(F)(F)F)CC3(CCC3)C2)C2CC2)CC=CCCCCN(C)C(=O)[C@H](Cc2cc(Cl)ccc2Cl)N(C)C1=O [Example 15] | 7850 nM | – | 550 nM | 180 nM | 1040 nM | 20 nM | – | – | –
